How the values were obtained:
382 unique human kinases [1] = target: T1, 382 unique human kinases (Homo sapiens, UniProt P00533, C797A); test: biochemical; format: biochemical; settings: EGFR (C797A), 10 uM
T1 construct: purchased Reaction Biology (HotSpot contract assay)

382 unique human kinases [2] = target: T2, 382 unique human kinases (Homo sapiens, UniProt P04626, D769H); test: biochemical; format: biochemical; settings: ERBB2 (D769H), 10 uM
T2 construct: purchased Reaction Biology (HotSpot contract assay)

382 unique human kinases [3] = target: T3, 382 unique human kinases (Homo sapiens, UniProt P04626, D769Y); test: biochemical; format: biochemical; settings: ERBB2 (D769Y), 10 uM
T3 construct: purchased Reaction Biology (HotSpot contract assay)

382 unique human kinases [4] = target: T4, 382 unique human kinases (Homo sapiens, UniProt P15056, V600K); test: biochemical; format: biochemical; settings: BRAF (V600K), 10 uM
T4 construct: purchased Reaction Biology (HotSpot contract assay)
T4 sequence (P15056 whole entry V600K): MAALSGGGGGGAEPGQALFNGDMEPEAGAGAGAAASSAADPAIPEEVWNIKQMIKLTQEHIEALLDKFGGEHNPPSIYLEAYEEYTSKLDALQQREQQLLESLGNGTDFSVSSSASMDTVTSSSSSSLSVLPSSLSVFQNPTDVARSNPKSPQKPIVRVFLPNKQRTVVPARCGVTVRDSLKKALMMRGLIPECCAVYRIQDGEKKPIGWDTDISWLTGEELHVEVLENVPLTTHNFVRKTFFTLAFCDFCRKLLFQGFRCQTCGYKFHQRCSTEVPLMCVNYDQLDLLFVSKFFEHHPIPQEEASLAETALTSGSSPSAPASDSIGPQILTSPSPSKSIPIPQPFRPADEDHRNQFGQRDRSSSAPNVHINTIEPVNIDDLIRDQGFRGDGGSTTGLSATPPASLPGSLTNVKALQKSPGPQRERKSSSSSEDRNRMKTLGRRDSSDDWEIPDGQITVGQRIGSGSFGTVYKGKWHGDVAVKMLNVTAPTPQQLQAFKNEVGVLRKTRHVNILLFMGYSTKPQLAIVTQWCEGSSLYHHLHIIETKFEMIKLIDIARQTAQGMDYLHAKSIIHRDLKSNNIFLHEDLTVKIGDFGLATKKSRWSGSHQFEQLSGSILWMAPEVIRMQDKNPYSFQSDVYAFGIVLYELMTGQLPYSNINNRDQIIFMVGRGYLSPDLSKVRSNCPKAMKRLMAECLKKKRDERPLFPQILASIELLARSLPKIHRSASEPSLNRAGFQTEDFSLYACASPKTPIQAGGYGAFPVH

382 unique human kinases [5] = target: T5, 382 unique human kinases (Homo sapiens, UniProt P19784); test: biochemical; format: biochemical; settings: CK2a2, 10 uM
T5 construct: purchased Reaction Biology (HotSpot contract assay)
T5 sequence (P19784 whole entry): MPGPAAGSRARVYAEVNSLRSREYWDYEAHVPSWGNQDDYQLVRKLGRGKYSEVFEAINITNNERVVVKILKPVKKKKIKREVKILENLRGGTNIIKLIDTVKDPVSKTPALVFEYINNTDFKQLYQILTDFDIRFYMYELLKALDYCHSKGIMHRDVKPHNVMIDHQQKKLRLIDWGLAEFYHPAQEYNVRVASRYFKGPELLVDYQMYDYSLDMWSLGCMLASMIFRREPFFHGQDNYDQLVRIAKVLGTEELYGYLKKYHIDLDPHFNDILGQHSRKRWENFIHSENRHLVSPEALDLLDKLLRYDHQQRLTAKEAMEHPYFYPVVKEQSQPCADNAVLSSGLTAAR

382 unique human kinases [6] = target: T6, 382 unique human kinases (Homo sapiens, UniProt P04626, V777L); test: biochemical; format: biochemical; settings: ERBB2 (V777L), compound at 10 uM, duplicate values
T6 construct: purchased Reaction Biology (HotSpot contract assay)

382 unique human kinases [7] = target: T7, 382 unique human kinases (Homo sapiens, UniProt P57078); test: biochemical; format: biochemical; settings: kinase RIPK4, compound 10 uM
T7 construct: purchased Reaction Biology (HotSpot contract assay)
T7 sequence (P57078 whole entry): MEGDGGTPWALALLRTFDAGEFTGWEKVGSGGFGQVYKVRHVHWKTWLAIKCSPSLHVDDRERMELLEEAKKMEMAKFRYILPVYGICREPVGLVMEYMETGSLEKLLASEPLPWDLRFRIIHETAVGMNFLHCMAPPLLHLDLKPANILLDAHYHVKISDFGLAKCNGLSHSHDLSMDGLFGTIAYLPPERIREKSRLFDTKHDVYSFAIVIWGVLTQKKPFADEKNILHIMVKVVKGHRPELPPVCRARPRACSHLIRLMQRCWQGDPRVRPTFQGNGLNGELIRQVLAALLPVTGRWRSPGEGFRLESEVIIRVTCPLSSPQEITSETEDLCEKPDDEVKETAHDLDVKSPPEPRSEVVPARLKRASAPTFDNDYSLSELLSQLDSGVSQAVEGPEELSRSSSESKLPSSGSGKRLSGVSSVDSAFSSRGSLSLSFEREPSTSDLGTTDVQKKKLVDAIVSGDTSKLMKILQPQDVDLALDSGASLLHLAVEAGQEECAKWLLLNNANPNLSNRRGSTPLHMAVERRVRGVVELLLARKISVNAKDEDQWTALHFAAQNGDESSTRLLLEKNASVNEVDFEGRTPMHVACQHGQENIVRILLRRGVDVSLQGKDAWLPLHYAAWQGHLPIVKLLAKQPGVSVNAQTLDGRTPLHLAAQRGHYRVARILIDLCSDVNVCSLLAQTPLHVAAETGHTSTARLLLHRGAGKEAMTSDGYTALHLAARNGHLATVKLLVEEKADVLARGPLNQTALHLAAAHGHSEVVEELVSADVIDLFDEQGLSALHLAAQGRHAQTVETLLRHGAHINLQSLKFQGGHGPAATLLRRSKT

[8] = human, in vivo; cited from earlier work
ABL1 = ABL1 (Homo sapiens, UniProt P00519); test: NanoBRET intracellular target engagement
Sequence of ABL1 (P00519 whole entry): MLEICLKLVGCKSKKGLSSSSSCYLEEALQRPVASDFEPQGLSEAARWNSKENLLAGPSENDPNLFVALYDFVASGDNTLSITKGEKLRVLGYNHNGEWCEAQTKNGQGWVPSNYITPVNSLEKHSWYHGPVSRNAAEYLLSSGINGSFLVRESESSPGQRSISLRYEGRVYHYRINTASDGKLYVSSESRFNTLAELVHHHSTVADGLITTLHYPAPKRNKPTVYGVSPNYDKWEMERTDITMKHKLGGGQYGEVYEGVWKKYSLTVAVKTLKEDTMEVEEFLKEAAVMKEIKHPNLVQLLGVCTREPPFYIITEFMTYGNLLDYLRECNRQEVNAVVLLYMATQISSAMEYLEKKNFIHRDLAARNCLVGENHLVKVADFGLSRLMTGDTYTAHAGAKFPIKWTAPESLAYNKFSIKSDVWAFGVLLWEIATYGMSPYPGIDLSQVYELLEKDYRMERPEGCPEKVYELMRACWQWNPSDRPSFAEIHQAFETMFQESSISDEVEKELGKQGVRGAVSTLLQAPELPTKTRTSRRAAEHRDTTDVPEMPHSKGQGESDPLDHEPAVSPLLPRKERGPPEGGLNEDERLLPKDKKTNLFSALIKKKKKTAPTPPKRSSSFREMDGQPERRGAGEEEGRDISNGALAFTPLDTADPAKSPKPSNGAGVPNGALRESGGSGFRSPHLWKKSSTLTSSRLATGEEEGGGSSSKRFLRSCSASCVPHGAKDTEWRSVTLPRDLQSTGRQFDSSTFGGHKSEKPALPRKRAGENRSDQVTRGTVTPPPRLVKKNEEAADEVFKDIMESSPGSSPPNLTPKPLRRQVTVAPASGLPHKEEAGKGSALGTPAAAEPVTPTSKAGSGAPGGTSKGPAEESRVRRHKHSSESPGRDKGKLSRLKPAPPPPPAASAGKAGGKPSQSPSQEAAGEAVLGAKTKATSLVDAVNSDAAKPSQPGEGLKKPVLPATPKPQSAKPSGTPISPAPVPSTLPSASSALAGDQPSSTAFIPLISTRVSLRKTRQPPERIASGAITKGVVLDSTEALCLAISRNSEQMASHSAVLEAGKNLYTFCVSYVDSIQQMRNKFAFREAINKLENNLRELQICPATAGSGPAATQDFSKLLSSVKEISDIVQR

ABL2 = ABL2 (Homo sapiens, UniProt P42684); test: NanoBRET intracellular target engagement
Sequence of ABL2 (P42684 whole entry): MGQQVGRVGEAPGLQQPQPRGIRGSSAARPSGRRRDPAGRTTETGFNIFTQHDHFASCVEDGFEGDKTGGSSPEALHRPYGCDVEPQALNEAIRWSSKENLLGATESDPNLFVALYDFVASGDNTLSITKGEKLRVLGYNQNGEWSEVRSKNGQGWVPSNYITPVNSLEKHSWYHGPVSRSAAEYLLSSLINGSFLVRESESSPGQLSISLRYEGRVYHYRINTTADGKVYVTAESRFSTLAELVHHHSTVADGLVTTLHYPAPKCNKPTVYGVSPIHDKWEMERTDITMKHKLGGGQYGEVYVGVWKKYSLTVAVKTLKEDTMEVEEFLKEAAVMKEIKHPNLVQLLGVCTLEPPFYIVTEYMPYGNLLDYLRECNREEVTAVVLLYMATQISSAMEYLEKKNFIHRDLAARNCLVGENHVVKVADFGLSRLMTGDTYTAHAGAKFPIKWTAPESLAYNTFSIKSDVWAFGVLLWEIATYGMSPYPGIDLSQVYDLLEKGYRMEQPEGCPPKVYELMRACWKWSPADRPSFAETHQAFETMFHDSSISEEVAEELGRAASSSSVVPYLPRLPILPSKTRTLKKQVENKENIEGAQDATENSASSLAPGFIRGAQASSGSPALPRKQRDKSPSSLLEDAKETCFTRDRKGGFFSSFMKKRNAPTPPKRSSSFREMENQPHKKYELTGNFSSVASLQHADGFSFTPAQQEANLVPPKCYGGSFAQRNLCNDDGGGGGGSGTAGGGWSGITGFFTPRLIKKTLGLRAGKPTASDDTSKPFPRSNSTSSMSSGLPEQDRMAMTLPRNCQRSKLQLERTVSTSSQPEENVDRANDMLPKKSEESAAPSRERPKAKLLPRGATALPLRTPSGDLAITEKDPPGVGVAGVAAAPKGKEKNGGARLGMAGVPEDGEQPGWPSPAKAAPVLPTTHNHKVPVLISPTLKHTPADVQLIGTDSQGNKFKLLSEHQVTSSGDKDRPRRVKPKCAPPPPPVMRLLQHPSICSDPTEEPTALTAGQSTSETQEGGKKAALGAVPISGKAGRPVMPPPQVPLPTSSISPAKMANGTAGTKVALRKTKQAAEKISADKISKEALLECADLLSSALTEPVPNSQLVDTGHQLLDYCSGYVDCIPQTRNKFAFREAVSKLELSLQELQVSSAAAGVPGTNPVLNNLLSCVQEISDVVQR

DDR1 = DDR1 (Homo sapiens, UniProt Q08345); test: NanoBRET intracellular target engagement
[9] = read-out: % Enzyme Activity (relative to DMSO controls)

Compound: CCNC(=O)c1noc(-c2cc(C(C)C)c(O)cc2O)c1-c1ccc(CN2CCOCC2)cc1 [Luminespib]
- % Enzyme Activity (relative to DMSO controls) (382 unique human kinases [1]): 99.37%
- remaining activity at 10 µM (382 unique human kinases [1]; [9]): 102%
- % Enzyme Activity (relative to DMSO controls) (382 unique human kinases [2]): 99.65%
- remaining activity at 10 µM (382 unique human kinases [2]; [9]): 102%
- % Enzyme Activity (relative to DMSO controls) (382 unique human kinases [3]): 99.76%
- remaining activity at 10 µM (382 unique human kinases [3]; [9]): 100%
- % Enzyme Activity (relative to DMSO controls) (382 unique human kinases [4]): 98.47%
- remaining activity at 10 µM (382 unique human kinases [4]; [9]): 99.2%
- % Enzyme Activity (relative to DMSO controls) (382 unique human kinases [5]): 108.66%
- remaining activity at 10 µM (382 unique human kinases [5]; [9]): 111%

Compound: CCNC(=O)c1noc(-c2cc(C(C)C)c(O)cc2O)c1-c1ccc(CN2CCOCC2)cc1 [Luminespib (AUY-922)]
- % Enzyme Activity (relative to DMSO controls) (382 unique human kinases [6]): 104.18%
- remaining activity at 10 µM (382 unique human kinases [6]; [9]): 105%
- % Enzyme Activity (relative to DMSO controls) (382 unique human kinases [7]): 85.29%
- remaining activity at 10 µM (382 unique human kinases [7]; [9]): 87.2%

Compound: CC(C)c1cc(-c2n[nH]c(=O)n2-c2ccc3c(ccn3C)c2)c(O)cc1O [Ganetespib]
- Cmax,total [8]: 6 to 12 µM
- EC50 (ABL1): 82.9 µM
- remaining activity at 100 µM (ABL1; HEK293, read-out: %Normalized Bret Response, ABL1 NanoBRET, HEK293, Drug Conc. 0.0001 M): 41.3%
- EC50 (ABL2): 21.1 µM
- remaining activity at 100 µM (ABL2; HEK293, read-out: %Normalized Bret Response, ABL2 NanoBRET, HEK293, Drug Conc. 0.0001 M): 22.6%
- EC50 (DDR1): 75.5 µM
- remaining activity at 100 µM (DDR1; HEK293, read-out: %Normalized Bret Response, DDR1 NanoBRET, HEK293, Drug Conc. 0.0001 M): 37.5%

From article PMC8550792, “Evolution of kinase polypharmacology across HSP90 drug discovery” (Cell Chemical Biology, 2021)
